Source: the supplement of paper PMC4862054

What was measured:
Conditions in all cases: incubation time: 72 h
[1] = tested on: MDA-MB-453; experiment: drug sensitivity score (DSS), CellTox Green (DSS (AUC-based score)); higher = stronger drug effect (viability inhibition or cytotoxicity); extreme values may be limits of the assay
Outline: (§1)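 The drug sensitivity score reflects the area under a fitted dose-response curve. To obtain it, breast cancer cells in 20 µl suspension were seeded into 384-well plates containing compound at 5 concentrations, 10-fold apart over a compound-specific 10,000-fold range, and incubated 72 h. CellTox Green fluorescence (485/520 nm) was read first and CellTiter-Glo luminescence second, after 10 min at room temperature. Each plate was normalised to 0.1 % DMSO and a positive kill control.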

[2] = tested on: CAL-148; experiment: as above
Outline: as §1

[3] = tested on: CAL-120; experiment: as above
Outline: as §1

[4] = tested on: DU-4475; experiment: as above
Outline: as §1

[5] = tested on: HCC1937; experiment: as above
Outline: as §1

[6] = tested on: BT-549; experiment: as above
Outline: as §1

[7] = tested on: BT-474; experiment: as above
Outline: as §1

[8] = tested on: MDA-MB-231; experiment: as above
Outline: as §1

[9] = tested on: CAL-85-1; experiment: as above
Outline: as §1

[10] = tested on: HCC1143; experiment: as above
Outline: as §1

[11] = tested on: MFM-223; experiment: as above
Outline: as §1

[12] = tested on: MDA-MB-453; experiment: normalised viability (% of control), CellTiter-Blue; higher = more viable cells (about 100 = DMSO control)
Description: (§2)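 DSRT, CellTiter-Blue viability, 72 h incubation. Signal is normalised to DMSO and benzethonium chloride controls. Value is the normalised response at dose 3.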

[13] = tested on: CAL-148; experiment: as above
Description: as §2

[14] = tested on: CAL-120; experiment: as above
Description: as §2

[15] = tested on: HDQ-P1; experiment: as above
Description: as §2

[16] = tested on: DU-4475; experiment: as above
Description: as §2

[17] = tested on: HCC1937; experiment: as above
Description: as §2

[18] = tested on: BT-549; experiment: as above
Description: as §2

[19] = tested on: HCC1599; experiment: as above
Description: as §2

[20] = tested on: BT-474; experiment: as above
Description: as §2

[21] = tested on: Hs578T; experiment: as above
Description: as §2

[22] = tested on: MDA-MB-436; experiment: as above
Description: as §2

[23] = tested on: MDA-MB-468; experiment: as above
Description: as §2

[24] = tested on: MDA-MB-231; experiment: as above
Description: as §2

[25] = tested on: CAL-85-1; experiment: as above
Description: as §2

[26] = tested on: CAL-51; experiment: as above
Description: as §2

[27] = tested on: SK-BR-3; experiment: as above
Description: as §2

[28] = tested on: HCC1143; experiment: as above
Description: as §2

[29] = tested on: MFM-223; experiment: as above
Description: as §2

SMILES | drug sensitivity score [1] | drug sensitivity score [2] | drug sensitivity score [3] | drug sensitivity score [4] | drug sensitivity score [5] | drug sensitivity score [6] | drug sensitivity score [7] | drug sensitivity score [8] | drug sensitivity score [9] | drug sensitivity score [10] | drug sensitivity score [11] | normalised viability ([12]; 1 nM) | normalised viability ([13]; 1 nM) | normalised viability ([14]; 10 nM) | normalised viability ([15]; 1 nM) | normalised viability ([16]; 1 nM) | normalised viability ([17]; 10 nM) | normalised viability ([18]; 10 nM) | normalised viability ([19]; 10 nM) | normalised viability ([20]; 10 nM) | further results
COc1cc2c(Oc3ccc(NC(=O)C4(C(=O)Nc5ccc(F)cc5)CC4)cc3F)ccnc2cc1OCCCN1CCOCC1 [Foretinib] | 0 | 1.71 | 0 | 0 | 0 | 0 | 0 | 10.4 | 0 | 1.04 | 0 | 91.6% | 108% | 89% | 92.4% | 96.6% | 97.7% | 107% | 95.3% | 109% | normalised viability ([21]; 10 nM): 97.5%; normalised viability ([22]; 10 nM): 91.8%; normalised viability ([23]; 10 nM): 134%; normalised viability ([24]; 10 nM): 95.1%; normalised viability ([25]; 1 nM): 100%; normalised viability ([26]; 1 nM): 93.2%; normalised viability ([27]; 10 nM): 78.8%; normalised viability ([28]; 10 nM): 99.9%; normalised viability ([29]; 10 nM): 80%
NC(=O)NO [Hydroxyurea] | 0 | 0 | 0 | 0 | 0 | 0 | 0 | 0 | 0 | 0 | 0 | – | – | – | – | – | – | – | – | – | normalised viability ([12]; 100 nM): 101%; normalised viability ([13]; 100 nM): 96.8%; normalised viability ([14]; 1000 nM): 103%; normalised viability ([15]; 100 nM): 108%; normalised viability ([16]; 100 nM): 119%; normalised viability ([17]; 1000 nM): 91.4%; normalised viability ([18]; 1000 nM): 103%; normalised viability ([19]; 1000 nM): 117%; normalised viability ([20]; 1000 nM): 115%; normalised viability ([21]; 1000 nM): 98.2%; normalised viability ([22]; 1000 nM): 106%; normalised viability ([23]; 1000 nM): 109%; normalised viability ([24]; 1000 nM): 98.2%; normalised viability ([25]; 100 nM): 100%; normalised viability ([26]; 100 nM): 111%; normalised viability ([27]; 1000 nM): 101%; normalised viability ([28]; 1000 nM): 106%; normalised viability ([29]; 1000 nM): 96.9%
NC1(c2ccc(-c3nc4ccn5c(=O)[nH]nc5c4cc3-c3ccccc3)cc2)CCC1 [MK-2206] | 0 | 3.64 | 0 | 0 | 0 | 0 | 0 | 0 | 0 | 0 | 0 | 117% | 105% | 106% | 103% | 107% | 80.7% | 107% | 97.4% | 112% | normalised viability ([21]; 10 nM): 98.5%; normalised viability ([22]; 10 nM): 107%; normalised viability ([23]; 10 nM): 109%; normalised viability ([24]; 10 nM): 104%; normalised viability ([25]; 1 nM): 92.2%; normalised viability ([26]; 1 nM): 100%; normalised viability ([27]; 10 nM): 79%; normalised viability ([28]; 10 nM): 121%; normalised viability ([29]; 10 nM): 105%
